Experiments:
[1] = molecular target: T1, Full length human recombinant HDAC11 (Homo sapiens, UniProt Q96DB2); assay: In vitro histone deacetylase assay, enzymatic HDAC11 (electrophoretic mobility shift assay); assay type: biochemical; conditions: 10 nM HDAC11; 2 μM peptide substrate FAM-RHKK(tri-fluor-Ac)—NH2; 25° C.; 12 concentrations; read-out: HDAC11 Activity Range (IC50)
T1 construct: Full length human recombinant HDAC6 and HDAC11 proteins were expressed in baculoviral system
T1 sequence (Q96DB2 1-347): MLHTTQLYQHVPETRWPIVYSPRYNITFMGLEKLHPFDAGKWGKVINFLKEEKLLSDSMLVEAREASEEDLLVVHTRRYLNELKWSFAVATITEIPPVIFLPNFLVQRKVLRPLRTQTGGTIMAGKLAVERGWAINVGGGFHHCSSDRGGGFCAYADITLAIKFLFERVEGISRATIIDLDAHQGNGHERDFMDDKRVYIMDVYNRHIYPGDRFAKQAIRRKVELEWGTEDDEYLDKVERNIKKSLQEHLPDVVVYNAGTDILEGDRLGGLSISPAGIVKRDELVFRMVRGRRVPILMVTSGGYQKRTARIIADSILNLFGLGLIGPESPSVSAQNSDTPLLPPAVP
Outline: (§1)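 Baculovirus-expressed full-length enzymes (HDAC6 1 nM, FAM-RHKK(Ac)-NH2; HDAC11 10 nM, FAM-RHKK(tri-fluor-Ac)-NH2), 2 μM substrate, HEPES pH 7.5, 25°C, 12-point 3× dilutions. Product/substrate separated by microfluidic mobility shift after SDS quench; IC50 from 4-parameter fit, reported as +/++/+++ bins.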

[2] = molecular target: T2, Full length human recombinant HDAC6 (Homo sapiens, UniProt Q9UBN7); assay: In vitro histone deacetylase assay, enzymatic HDAC6 (electrophoretic mobility shift assay); assay type: biochemical; conditions: 1 nM HDAC6; 2 μM peptide substrate FAM-RHKK(Ac)—NH2; 25° C.; 12 concentrations; read-out: HDAC6 Activity Range (IC50)
T2 construct: Full length human recombinant HDAC6 and HDAC11 proteins were expressed in baculoviral system
T2 sequence (Q9UBN7 1-1215): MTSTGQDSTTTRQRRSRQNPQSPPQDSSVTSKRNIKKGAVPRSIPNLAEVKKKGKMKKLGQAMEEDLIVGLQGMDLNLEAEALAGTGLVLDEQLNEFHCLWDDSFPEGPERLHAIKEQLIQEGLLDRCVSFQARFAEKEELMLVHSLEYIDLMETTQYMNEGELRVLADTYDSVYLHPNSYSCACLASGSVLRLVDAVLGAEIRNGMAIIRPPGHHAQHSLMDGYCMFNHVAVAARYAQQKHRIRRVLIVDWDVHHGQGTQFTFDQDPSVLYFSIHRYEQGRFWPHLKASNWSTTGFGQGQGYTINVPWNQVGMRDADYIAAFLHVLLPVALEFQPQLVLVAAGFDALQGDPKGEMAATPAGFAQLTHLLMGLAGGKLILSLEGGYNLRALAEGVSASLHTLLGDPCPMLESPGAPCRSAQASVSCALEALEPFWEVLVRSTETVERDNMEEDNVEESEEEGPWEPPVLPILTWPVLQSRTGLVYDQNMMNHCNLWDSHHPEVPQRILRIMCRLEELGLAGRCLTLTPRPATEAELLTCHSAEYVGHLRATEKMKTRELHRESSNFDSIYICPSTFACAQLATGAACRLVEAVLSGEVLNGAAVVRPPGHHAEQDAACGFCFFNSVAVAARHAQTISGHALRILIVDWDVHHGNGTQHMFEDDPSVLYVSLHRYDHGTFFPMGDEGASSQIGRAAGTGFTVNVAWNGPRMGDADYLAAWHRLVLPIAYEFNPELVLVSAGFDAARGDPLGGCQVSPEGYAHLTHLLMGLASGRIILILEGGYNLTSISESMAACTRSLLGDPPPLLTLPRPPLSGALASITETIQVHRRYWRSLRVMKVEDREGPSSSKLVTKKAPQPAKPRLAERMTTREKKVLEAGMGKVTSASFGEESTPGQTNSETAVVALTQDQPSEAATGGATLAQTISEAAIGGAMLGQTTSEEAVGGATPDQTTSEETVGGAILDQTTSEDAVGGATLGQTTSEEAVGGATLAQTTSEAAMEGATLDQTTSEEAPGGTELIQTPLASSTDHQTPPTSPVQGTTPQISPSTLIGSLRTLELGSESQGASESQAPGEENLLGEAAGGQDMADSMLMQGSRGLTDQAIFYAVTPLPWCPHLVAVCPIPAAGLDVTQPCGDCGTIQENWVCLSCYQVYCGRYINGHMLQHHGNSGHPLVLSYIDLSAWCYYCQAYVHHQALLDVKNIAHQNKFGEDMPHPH
Outline: as §1

Compound | IC50 [1] [nM] | IC50 [2] [nM]
COCCCN1C[C@]2(CCc3ccc(C(=O)NO)cc3C2)CC1=O [Compound I-136, (S)—N-hydroxy-1′-(3-methoxypropyl)-5′-oxo-3,4-dihydro-1H-spiro[naphthalene-2,3′-pyrrolidine]-7-carboxamide] | > 500 | ≤ 100
O=C(NO)c1ccc2c(c1)C[C@@]1(CC2)CC(=O)N(C2CC2)C1 [Compound I-141, (S)-1′-cyclopropyl-N-hydroxy-5′-oxo-3,4-dihydro-1H-spiro[naphthalene-2,3′-pyrrolidine]-7-carboxamide] | > 500 | ≤ 100
CCN1C[C@@]2(CCc3ccc(C(=O)NO)cc3C2)CC1=O [Compound I-142, (R)-1′-ethyl-N-hydroxy-5′-oxo-3,4-dihydro-1H-spiro[naphthalene-2,3′-pyrrolidine]-7-carboxamide] | > 500 | ≤ 100
CCN1C[C@]2(CCc3ccc(C(=O)NO)cc3C2)CC1=O [Compound I-143, (S)-1′-ethyl-N-hydroxy-5′-oxo-3,4-dihydro-1H-spiro[naphthalene-2,3′-pyrrolidine]-7-carboxamide] | > 500 | ≤ 100
O=C(NO)c1ccc2c(c1)C[C@@]1(CC2)CC(=O)N(CC(F)(F)F)C1 [Compound I-144, (S)—N-hydroxy-5′-oxo-1′-(2,2,2-trifluoroethyl)-3,4-dihydro-1H-spiro[naphthalene-2,3′-pyrrolidine]-7-carboxamide] | > 500 | ≤ 100
O=C(NO)c1ccc2c(c1)C[C@]1(CC2)CC(=O)N(c2ccccc2)C1 [Compound I-145, (R)—N-hydroxy-5′-oxo-1′-phenyl-3,4-dihydro-1H-spiro[naphthalene-2,3′-pyrrolidine]-7-carboxamide] | > 500 | ≤ 100
O=C(NO)c1ccc2c(c1)C[C@]1(CC2)CC(=O)N(CC2COC2)C1 [Compound I-146, (R)—N-hydroxy-1′-(oxetan-3-ylmethyl)-5′-oxo-3,4-dihydro-H-spiro[naphthalene-2,3′-pyrrolidine]-7-carboxamide] | > 500 | ≤ 100
O=C(NO)c1ccc2c(c1)C[C@@]1(CC2)CC(=O)N(CC2COC2)C1 [Compound I-147, (S)—N-hydroxy-1′-(oxetan-3-ylmethyl)-5′-oxo-3,4-dihydro-1H-spiro[naphthalene-2,3′-pyrrolidine]-7-carboxamide] | > 500 | ≤ 100

The next lines start with the values.

IC50 [1] [nM] | IC50 [2] [nM] | Compound
> 500 | ≤ 100 | CC(C)CN1C[C@@]2(CCc3ccc(C(=O)NO)cc3C2)CC1=O [Compound I-137, (R)—N-hydroxy-1′-isobutyl-5′-oxo-3,4-dihydro-1H-spiro[naphthalene-2,3′-pyrrolidine]-7-carboxamide]
> 500 | ≤ 100 | CC(C)CN1C[C@]2(CCc3ccc(C(=O)NO)cc3C2)CC1=O [Compound I-138, (S)—N-hydroxy-1′-isobutyl-5′-oxo-3,4-dihydro-1H-spiro[naphthalene-2,3′-pyrrolidine]-7-carboxamide]
> 500 | ≤ 100 | CC(C)N1C[C@@]2(CCc3ccc(C(=O)NO)cc3C2)CC1=O [Compound I-139, (R)—N-hydroxy-1′-isopropyl-5′-oxo-3,4-dihydro-1H-spiro[naphthalene-2,3′-pyrrolidine]-7-carboxamide]
> 500 | ≤ 100 | CC(C)N1C[C@]2(CCc3ccc(C(=O)NO)cc3C2)CC1=O [Compound I-140, (S)—N-hydroxy-1′-isopropyl-5′-oxo-3,4-dihydro-1H-spiro[naphthalene-2,3′-pyrrolidine]-7-carboxamide]
> 500 | ≤ 100 | O=C(NO)c1ccc2c(c1)C[C@]1(CC2)CC(=O)N(C2CC2)C1 [Compound I-148, (R)-1′-cyclopropyl-N-hydroxy-5′-oxo-3,4-dihydro-H-spiro[naphthalene-2,3′-pyrrolidine]-7-carboxamide]

From patent publication US9637453B2, “3-spirocyclic-6-hydroxamic acid tetralins as HDAC inhibitors” (Forma Therapeutics, Inc., priority 2015, dated 2017)
